Reference: patent publication US10711007B2, “Selective inhibitors of protein arginine methyltransferase 5 (PRMT5)” (Prelude Therapeutics, Incorporated, priority 2018, dated 2020)

What was measured:
[1] = system: sDMA marks (SmD3me2s) in U-87 MG cells; experiment: Western blotting for symmetric di-methyl arginine (sDMA) marks in U-87 MG cells; format: cell-based; conditions: Homo sapiens, 72 h; U-87 MG cell line, 3 days
Protocol: Cell Treatment and Western Blotting for Detecting Symmetric Di-Methyl Arginine (sDMA) Marks
Compound Titration and Cell Culture:
Compounds were dissolved in DMSO to make 10 mM stock and 3-fold series dilutions were further conducted to make working stocks top at 1 mM. Granta-519 cells were maintained in PRMI 1640 (Corning Cellgro, Catalog #: 10-040-CV) supplemented with 10% v/v FBS (GE Healthcare, Catalog #: SH30910.03) and U-87 MG cells were maintained in DMEM (Corning Cellgro, Catalog #: 10-013-CV) with 10% FBS and 2 mM Glutamin (Corning Cellgro, Catalog #25005CV).
To determine enzyme inhibition IC50 values in Granta-519 and U-87 MG cells using Western Blot analysis. One day before experiment, Granta-519 cells were passaged to a density of 0.5×10^6 cells/ml. U-87 MG cells were trypsinized and 4×10^5 cells were seeded into 6-well plates and allow to grow overnight. The next day, Granta-519 cells were spun down at 1,500 rpm for 4 min, resuspend in fresh medium at 0.5×10^6 cells/ml and 3 mL of culture (1.5×10^6 cells) were seeded into 6 well plate. Eight-point, 3-fold serial dilutions of compound working stocks were added to cells (3 ul, 1:1,000 dilution, DMSO concentration was 0.1%; final top concentration at 1 uM) and incubated for 3 days. Cells incubated with DMSO was used as a vehicle control.
Cells were harvested 3 days later, resuspended in 15 uL PBS, lysed in 4% SDS, and homogenized by passing through homogenizer column (Omega Biotek, Catalog #: HCR003). Total protein concentrations were determined by BCA assay (ThermoFisher Scientific, Catalog #: 23225). Lysates were mixed with 5× Laemmli buffer and boiled for 5 min. Forty ug of total protein was separated on SDS-PAGE gels (Bio-Rad, catalog #: 4568083, 4568043), transferred to PVDF membrane, blocked with 5% dry milk (Bio-Rad, Catalog #: 1706404) in TBS with 0.1% v/v Tween 20 (TBST) for 1 hour at room temperature (RT), and incubated with primary antibodies (sDMA: Cell signaling, Catalog #: 13222, 1:3,000; β-Actin: sigma, Catalog #: 1:5,000) in 5% dry milk in TBST at 4° C. overnight. The next day, membranes were washed with TBST, 5×5 min, and incubated with HRP conjugated seconded antibody (GE Healthcare; Catalog #: NA934-1ML, NA931-1ML; 1:5,000) for 2 hours at RT, followed by 5×5 min washes with TBST, and incubation with ECL substrates (Bio-Rad, Catalog #: 1705061, 1705062). Chemiluminescent signal was captured with Fluochem HD2 imager (Proteinsimple). SmD3me2s bands were quantified by ImageJ. Signals were normalized to β-Actin and DMSO control. IC50 values were calculated using Graphpad Prism ([Inhibitor] vs. normalized response-Variable slope).

PRMT5/MEP50 complex = PRMT5/MEP50 complex (Homo sapiens (Human), UniProt O14744); experiment: Biochemical assay: PRMT5/MEP50 methylation of histone H4 based AcH4-23, SPA readout; conditions: PRMT5/MEP50 2.5 nM, 300 nM AcH4-23, 1 μM 3H-SAM
PRMT5/MEP50 complex, sequence (O14744 whole entry): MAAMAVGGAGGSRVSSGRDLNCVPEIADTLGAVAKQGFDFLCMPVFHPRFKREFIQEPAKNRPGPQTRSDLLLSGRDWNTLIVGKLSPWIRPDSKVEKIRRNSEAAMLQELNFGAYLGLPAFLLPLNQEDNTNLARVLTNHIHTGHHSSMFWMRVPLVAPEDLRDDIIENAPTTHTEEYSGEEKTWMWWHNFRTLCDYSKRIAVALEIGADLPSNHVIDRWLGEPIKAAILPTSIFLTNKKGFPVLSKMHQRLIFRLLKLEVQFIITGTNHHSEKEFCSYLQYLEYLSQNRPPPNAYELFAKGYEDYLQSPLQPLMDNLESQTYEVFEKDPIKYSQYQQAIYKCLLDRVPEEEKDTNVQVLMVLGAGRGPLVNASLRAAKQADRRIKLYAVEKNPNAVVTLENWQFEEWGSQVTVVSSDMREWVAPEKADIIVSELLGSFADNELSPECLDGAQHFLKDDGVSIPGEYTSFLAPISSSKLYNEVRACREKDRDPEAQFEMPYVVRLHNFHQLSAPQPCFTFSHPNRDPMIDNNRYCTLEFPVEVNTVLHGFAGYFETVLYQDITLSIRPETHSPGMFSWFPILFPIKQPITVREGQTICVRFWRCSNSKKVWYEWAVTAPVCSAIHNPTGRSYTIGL
PRMT5/MEP50 complex, sequence (Q9BQA1 whole entry partner): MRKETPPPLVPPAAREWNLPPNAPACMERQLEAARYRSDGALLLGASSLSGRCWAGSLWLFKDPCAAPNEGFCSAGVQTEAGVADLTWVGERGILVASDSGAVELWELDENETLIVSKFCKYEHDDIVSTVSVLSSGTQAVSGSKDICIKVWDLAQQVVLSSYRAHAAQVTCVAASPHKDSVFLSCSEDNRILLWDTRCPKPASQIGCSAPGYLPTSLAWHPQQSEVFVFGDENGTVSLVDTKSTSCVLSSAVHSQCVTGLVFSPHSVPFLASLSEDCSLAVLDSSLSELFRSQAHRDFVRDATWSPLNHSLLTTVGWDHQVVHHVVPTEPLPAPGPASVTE
Procedure, shortened: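 PRMT5/MEP50 (2.5 nM final) preincubated with compound 20 min at 37°C alongside 300 nM AcH4-23 peptide. Reaction started with 1 µM [3H-methyl]-SAM, run 30 min at 37°C and quenched with guanidine HCl. Streptavidin SPA beads, scintillation counting; IC50 from four-parameter Hill fit.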

Nc1ncnc2c1ccn2[C@@H]1O[C@H]([C@@H]2OCc3ccc(Cl)cc32)[C@@H](O)[C@H]1O [Example 5, (2R,3R,4S,5S)-2-(4-amino-7H-pyrrolo[2,3-d]pyrimidin-7-yl)-5-((R)-6-chloro-1,3-dihydroisobenzofuran-1-yl)tetrahydrofuran-3,4-diol]
IC50 [1]: 25 nM | IC50 (PRMT5/MEP50 complex): 1 nM
